Molecules are shown by their SMILES. Structures can show the parent of a compound that is named as a salt. Where two headings read alike, the source gives them in different places.

For data set [1], the system named is protein synthesis in BEC-hACE2 cells. Put plainly: Puromycin pulse labeling, protein synthesis in cultured BEC-hACE2 cells. The format is cell-based, human. The following applies: for inhibition at 1 µM: BEC-hACE2, 1 μM.
A further data set has as its system HCoV-OC43. Briefly: Antiviral activity against HCoV-OC43 in Vero E6 cells (RT-qPCR of N-gene). It is filed as cell-based. The procedure: Vero E6 cells (∼5 × 10^4 cells/cm^2 in 24-well plates) were infected with […] at MOI of 20 genomes per cell in 2 % FBS-EMEM at 33 °C, 5 % CO2 with gently mixing for 2 h. Infection medium was removed, cells were washed with fresh medium followed by the addition of compounds at indicated concentrations in 2 % FBS-EMEM. After 72 h, 100 µL of medium was collected and stored at −80 °C for viral RNA isolation and RT-qPCR analysis as detailed below. Drugs were added to the medium prior to and after viral absorption for comparison.
HCoV-OC43 RNA was isolated from 100 µL of medium using Quick-RNA Viral Kit-DX (Zymo Research, CA, USA; R1035). The relative amount of viral genomic RNA was determined with Luna Universal One-Step RT-qPCR Kit (New England Biolabs, MA, USA; E3005). […]
RT-qPCR cycles were set for 20 min at 55 °C, 1 min at 95 °C followed by 45 cycles of 95 °C for 10 s, 48 °C for 30 s and 60 °C for 1 min. The threshold cycle (Ct) for each sample was determined using the Opticon Monitor 3 Program (BioRad). Drug effects on viral propagation were evaluated assuming that a difference of one cycle corresponds to a two-fold difference in the number of copies of viral RNA. Ct values obtained for drug-free samples were considered as 100 % viral propagation.
For orientation: Real-time PCR tracks product formation cycle by cycle.

The subject of the next data set is Vero E6 cells. Put plainly: MTS assay, growth inhibition and toxicity in non-infected Vero E6 cells. The format is cell-based, African green monkey. To be noted: for Concentrations at which drug is cytotoxic: Vero E6, MTS. The procedure: (§1) Detailed methods are provided in Supplementary Information.
(§2) Vero E6 and BEC-hACE2 cells were grown to 70-80% density in their maintenance media and exposed to various concentrations of ipecac alkaloids (0.0125 – 200 µM) under standard culture conditions for 48-72 h and 24 h, respectively. Controls with varying amounts of DMSO and no DMSO were included also. Vero E6 cells were incubated with drugs in 2% FBS-EMEM, while BEC-HACE2 cells were grown and treated in complete PCS-300-03 medium with supplements. Similar treatments were also conducted using fully confluent non-growing BEC-hACE2 cells. At the end of the exposure period, MTS reagent (Promega G3580) was added at 1/5th of the medium volume and color was allowed to develop by incubation of the plates for an hour in a cell culture incubator. To stop reactions, SDS was added to a final concentration of 2% and optical density of samples was measured at 450 or 490 nm, depending on the model of spectrophotometer (PharmaciaBiotech, NJ, USA; UV spectrophotometer, model Ultrospec2000) or plate reader (Molecular Devices, CA, USA; model Filter Max F5 Multi-mode microplate reader) available at the time of experiment.

Data set [2] has as its system Entamoeba histolytica. Put plainly: Growth inhibition of Entamoeba histolytica in vitro (literature). The following applies: anti-coronavirus IC50 versus amebae. The format is cell-based.
The test system of the next data set is BEC-hACE2 cells. Briefly: Sulforhodamine B (SRB) assay in non-infected BEC-hACE2 cells. To be noted: for GI50 / SRB, TGI: BEC-hACE2, 24 h; for GI50: read-out: SRB, GI50. It is filed as cell-based, human. As for the experimental part:
as §1
This method has been used by the National Cancer Institute to evaluate drug candidates for their activities as growth inhibitors and toxins in human cancer cell lines. NCI’s protocols for SRB assay were strictly followed^81, 82. On the day of exposure (Day 0), several wells of untreated cells were fixed by addition of trichloroacetic acid (TCA, 10% V/V) and incubated for one hour at 4°C. The supernatant was discarded, wells washed five times with tap water and then air-dried. Samples were stored at room temperature until cells exposed to ipecac alkaloids or DMSO for 24 h were fixed in a similar manner. For color development, 500 µl of 0.4% SRB reagent prepared in 1% acetic acid was added to fixed cells and samples were incubated at room temperature for 15 min with gentle rocking. Unbound dye was removed by five washes with 1% acetic acid and plates were air-dried. Trizma base (10 mM) was used to dissolve the stain and absorbance was measured at 515 nm using a spectrophotometer. By comparing absorption values obtained at day 0 to the signal at day 1, with and without drugs, this protocol permits distinguishing growth inhibition from toxicity of the test compounds.
(In general: Sulforhodamine B stains cellular protein and so reports cell mass.)

In data set [3] the target is T1, l-type calcium current ICaL (Homo sapiens, UniProt Q13936).
T1 construct: host or cells: human iPSC-derived ventricular cardiomyocytes
Put plainly: Patch clamp recording of ICaL in human iPSC-derived cardiomyocytes. It is filed as cell-based. As for the experimental part: iPSC cells (Axol Bioscience Ltd, FL, USA) were plated at a density of 25,000 cells/cm^2 on coverslips coated with 1x Axol Fibronectin Coating Solution in Axol Plating Medium (Axol Cardiomyocyte Maintenance Medium, 10 % fetal bovine serum and 10 μM Y-27,632 2HCl) according to manufacturer's instructions. The next day the medium was changed to Axol Cardiomyocyte Maintenance Medium. Cells were maintained at 5 % CO2, 37 °C in humidified conditions. Medium was replaced every other day.
An Axopatch −1D (Axon Instruments: Molecular Devices LLC, CA, USA) amplifier and […] were used for recording and data analysis. Patch electrode resistance was set at 4–6 MΩ and room temperature was 22 ± 1 °C. During the recording, cells were held at −50 mV, then, the voltage was gradually raised to +60 mV in 10 mV increments with 300 ms pulse. The bath solution included the following components: 137 mM TEA-Cl, 1 mM MgCl2, 2 mM CaCl2, 10 mM HEPES, 10 mM glucose (pH 7.4, adjusted with TEA-OH). For the pipette the solution contained: 111 mM CsCl, 20 mM TEA-Cl, 10 mM glucose, 10 mM HEPES, 14 mM EGTA, 5 mM MgATP (pH 7.2, adjusted with CsOH).
D represents the concentrations of a given drug.
For orientation: The patch-clamp technique gives a direct electrical read-out from membranes.

The nature of data set [4]: MTS assay, growth inhibition and toxicity in non-infected BEC-hACE2 cells. To be noted: human, sub-confluent non-infected BEC-hACE2 cells; sub-confluent BEC-hACE2, 24 h; read-out: MTS, CC50 (50 % effect). It is filed as cell-based, human. As for the experimental part:
as §1, §2

A further data set concerns the target sodium channel. Also on record: method as in Lemmens-Gruber et al., 1997. To be noted: ref Lemmens-Gruber et al., 1997; read-out: Kd, sodium channel reduction; cited from earlier work.
Data set [5] is described as follows: MTS assay, growth inhibition and toxicity in non-infected Vero E6 cells. The format is cell-based, African green monkey. To be noted: African green monkey, non-infected Vero E6 cells, MTS, 72 h; read-out: Fifty percent effect (CC50) in non-infected Vero E6. The procedure:
as §1, §2

Data set [6] has as its system Entamoeba histolytica. The following applies: in vitro; ref Burchard and Mirelman, 1988; cited from earlier work.
Setting [7] is: Betacoronavirus 1, OC43, Vero C1008, 72 h, Vero E6, 72 h, read-out: Antiviral IC50.
The mark [8] stands for this setting: Betacoronavirus 1, OC43, Vero C1008, Vero E6, drug added after viral absorption, 72 hpi, read-out: Antiviral IC50.
The mark [9] stands for this setting: Homo sapiens, read-out: Protein synthesis inhibition,%.

T1 sequence (Q13936 whole entry): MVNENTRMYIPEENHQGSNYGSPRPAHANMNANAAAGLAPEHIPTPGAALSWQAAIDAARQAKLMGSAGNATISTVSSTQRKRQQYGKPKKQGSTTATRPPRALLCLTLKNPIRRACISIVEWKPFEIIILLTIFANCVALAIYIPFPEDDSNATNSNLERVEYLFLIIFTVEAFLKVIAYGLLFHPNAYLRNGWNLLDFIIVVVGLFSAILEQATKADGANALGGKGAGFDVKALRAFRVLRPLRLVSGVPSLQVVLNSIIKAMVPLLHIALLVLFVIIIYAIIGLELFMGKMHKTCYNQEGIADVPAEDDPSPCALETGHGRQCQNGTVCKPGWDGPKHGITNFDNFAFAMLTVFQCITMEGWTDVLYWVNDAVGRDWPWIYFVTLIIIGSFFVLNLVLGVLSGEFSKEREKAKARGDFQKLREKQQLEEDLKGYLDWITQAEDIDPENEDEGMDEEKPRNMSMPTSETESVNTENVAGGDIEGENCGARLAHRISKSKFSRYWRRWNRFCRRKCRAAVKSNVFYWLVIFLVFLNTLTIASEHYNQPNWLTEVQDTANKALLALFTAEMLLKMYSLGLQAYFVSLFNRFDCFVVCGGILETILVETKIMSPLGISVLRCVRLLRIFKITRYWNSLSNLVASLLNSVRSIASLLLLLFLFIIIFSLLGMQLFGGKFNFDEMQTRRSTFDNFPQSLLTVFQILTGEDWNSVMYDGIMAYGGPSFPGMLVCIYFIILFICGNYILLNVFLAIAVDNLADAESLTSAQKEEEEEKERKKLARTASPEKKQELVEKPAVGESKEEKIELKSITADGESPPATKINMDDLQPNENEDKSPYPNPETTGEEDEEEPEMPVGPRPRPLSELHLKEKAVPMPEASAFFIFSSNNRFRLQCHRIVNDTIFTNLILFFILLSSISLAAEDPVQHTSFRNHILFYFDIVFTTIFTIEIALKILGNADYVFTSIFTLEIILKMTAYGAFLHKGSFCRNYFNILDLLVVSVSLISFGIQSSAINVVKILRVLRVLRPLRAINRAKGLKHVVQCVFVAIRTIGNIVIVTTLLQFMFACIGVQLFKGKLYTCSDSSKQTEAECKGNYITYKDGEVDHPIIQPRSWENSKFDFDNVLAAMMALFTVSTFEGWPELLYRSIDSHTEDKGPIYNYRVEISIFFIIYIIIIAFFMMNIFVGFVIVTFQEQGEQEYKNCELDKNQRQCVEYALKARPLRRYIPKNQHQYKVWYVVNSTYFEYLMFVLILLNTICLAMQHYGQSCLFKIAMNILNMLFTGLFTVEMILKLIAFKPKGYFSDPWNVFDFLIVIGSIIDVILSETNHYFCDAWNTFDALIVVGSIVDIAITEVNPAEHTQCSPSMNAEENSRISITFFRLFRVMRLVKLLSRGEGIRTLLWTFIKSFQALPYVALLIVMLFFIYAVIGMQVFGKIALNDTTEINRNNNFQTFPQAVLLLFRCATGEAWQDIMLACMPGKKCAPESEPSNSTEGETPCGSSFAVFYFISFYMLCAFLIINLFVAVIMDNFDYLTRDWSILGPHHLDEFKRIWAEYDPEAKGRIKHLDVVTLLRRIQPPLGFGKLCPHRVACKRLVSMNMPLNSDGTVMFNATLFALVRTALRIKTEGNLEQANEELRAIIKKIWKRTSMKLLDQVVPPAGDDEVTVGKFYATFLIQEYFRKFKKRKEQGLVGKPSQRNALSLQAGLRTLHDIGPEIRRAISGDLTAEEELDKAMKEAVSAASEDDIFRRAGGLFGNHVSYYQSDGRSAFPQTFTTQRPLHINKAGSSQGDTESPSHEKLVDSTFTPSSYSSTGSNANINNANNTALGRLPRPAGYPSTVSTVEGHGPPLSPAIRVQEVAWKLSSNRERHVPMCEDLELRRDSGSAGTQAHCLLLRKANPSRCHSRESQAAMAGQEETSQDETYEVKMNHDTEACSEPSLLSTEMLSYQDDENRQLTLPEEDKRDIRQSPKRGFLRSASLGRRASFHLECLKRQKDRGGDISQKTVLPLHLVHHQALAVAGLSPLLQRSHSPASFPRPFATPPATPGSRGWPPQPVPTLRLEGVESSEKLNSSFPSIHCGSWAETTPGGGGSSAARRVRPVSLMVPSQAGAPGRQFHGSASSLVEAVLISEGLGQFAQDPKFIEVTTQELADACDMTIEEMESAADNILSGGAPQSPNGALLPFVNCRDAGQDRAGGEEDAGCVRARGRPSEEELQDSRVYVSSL
T1 sequence (P54289 25-956, further chain): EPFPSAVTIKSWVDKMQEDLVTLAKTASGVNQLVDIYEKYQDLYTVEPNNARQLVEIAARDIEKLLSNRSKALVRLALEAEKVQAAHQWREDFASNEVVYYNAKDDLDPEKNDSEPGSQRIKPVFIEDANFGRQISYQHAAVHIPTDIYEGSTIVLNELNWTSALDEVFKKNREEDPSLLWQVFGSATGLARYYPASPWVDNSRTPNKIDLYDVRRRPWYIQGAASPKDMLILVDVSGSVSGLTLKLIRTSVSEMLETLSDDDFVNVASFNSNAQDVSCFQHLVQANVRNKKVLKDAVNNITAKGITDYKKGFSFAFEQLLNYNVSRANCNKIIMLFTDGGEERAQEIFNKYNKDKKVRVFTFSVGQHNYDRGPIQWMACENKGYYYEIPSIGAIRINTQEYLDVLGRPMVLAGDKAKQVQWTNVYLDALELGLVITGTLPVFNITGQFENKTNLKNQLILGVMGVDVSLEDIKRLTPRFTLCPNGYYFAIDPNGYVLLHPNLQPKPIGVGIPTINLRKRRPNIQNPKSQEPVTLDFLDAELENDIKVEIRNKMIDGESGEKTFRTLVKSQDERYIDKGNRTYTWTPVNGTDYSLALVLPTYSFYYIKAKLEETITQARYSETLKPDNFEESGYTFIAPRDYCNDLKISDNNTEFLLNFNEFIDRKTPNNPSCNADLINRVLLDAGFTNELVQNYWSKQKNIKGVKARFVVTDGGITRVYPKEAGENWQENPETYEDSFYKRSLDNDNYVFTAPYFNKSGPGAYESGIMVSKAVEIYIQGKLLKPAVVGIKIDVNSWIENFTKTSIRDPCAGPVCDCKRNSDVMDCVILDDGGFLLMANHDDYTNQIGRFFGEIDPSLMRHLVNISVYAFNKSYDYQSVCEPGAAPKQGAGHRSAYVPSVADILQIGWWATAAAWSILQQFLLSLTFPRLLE
T1 sequence (P54289 957-1103, further chain): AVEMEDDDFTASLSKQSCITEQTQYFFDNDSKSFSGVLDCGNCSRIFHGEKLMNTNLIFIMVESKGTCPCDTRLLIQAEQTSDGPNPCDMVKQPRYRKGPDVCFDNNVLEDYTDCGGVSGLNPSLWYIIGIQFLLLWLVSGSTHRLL
T1 sequence (Q08289 whole entry, further chain): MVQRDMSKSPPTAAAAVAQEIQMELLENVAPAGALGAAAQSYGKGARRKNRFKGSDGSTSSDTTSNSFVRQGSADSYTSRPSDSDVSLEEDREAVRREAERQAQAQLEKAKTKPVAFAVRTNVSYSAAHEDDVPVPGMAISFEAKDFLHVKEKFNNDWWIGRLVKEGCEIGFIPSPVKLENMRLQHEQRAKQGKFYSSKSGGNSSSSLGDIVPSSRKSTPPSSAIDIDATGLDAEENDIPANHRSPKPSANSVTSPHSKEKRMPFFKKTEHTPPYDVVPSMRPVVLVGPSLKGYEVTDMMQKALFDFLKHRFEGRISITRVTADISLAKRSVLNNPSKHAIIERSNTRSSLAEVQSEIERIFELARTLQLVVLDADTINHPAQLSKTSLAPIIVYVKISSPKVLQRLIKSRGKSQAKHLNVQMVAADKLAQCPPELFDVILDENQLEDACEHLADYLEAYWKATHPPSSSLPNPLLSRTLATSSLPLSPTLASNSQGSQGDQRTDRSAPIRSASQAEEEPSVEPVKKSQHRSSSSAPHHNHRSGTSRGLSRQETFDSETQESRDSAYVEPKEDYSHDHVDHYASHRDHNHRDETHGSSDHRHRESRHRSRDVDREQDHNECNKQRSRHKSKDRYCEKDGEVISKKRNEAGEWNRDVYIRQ

For `CCC1=C(C[C@H]2NCCc3cc(OC)c(OC)cc32)C[C@H]2c3cc(OC)c(OC)cc3CCN2C1` [DHE4, 4H-Benzo[a]quinolizine, 3-ethyl-1,6,7,11b-tetrahydro-9,10-dimethoxy-2-[[(1R)-1,2,3,4-tetrahydro-6,7-dimethoxy-1-isoquinolinyl]methyl]-, (11bS)-], 1 µM produced 97% inhibition in data set [1] (Homo sapiens). The IC50 was 40 to 60 nM in the data set on HCoV-OC43 (setting [7]); 63 ± 4 nM in the data set on HCoV-OC43 (setting [8]); 66 ± 6 nM with HCoV-OC43 (Betacoronavirus 1, OC43, Vero C1008, read-out: Antiviral IC50, Vero E6, drug 1 h before viral absorption and 72 h after infection (1 hbi/72 hpi)). Besides, the “Selectivity index, (SI) CC50/IC50” value in the data set with HCoV-OC43 (HCoV-OC43, Vero E6, 72 hpi) was found to be 52. Besides, the “Concentrations at which drug is cytotoxic” value in the data set with Vero E6 cells is reported as “higher than 10 μM”. Moreover, in the data set with Entamoeba histolytica [2], the “Fold, antiviral concentrations lower than those required to kill amebae” value is 125–250 fold. The GI50 – broadly, the concentration that inhibits growth by half – came out at 62 ± 17 nM with BEC-hACE2 cells and 60 nM with BEC-hACE2 cells (Homo sapiens, 24 h). In addition, the Kd (in general, the constant that tells how readily two partners part at equilibrium) in data set [3] came out at 60000 nM. For the same molecule, the “Peak current density, ICaL” value in data set [3] (human IPSC-derived cardiomyocytes, DHE4 30 uM (control 13.5)) is 8.9. Also, the “Peak current density, ICaL, washout” value in data set [3] (human IPSC-derived cardiomyocytes, after washout of DHE4 30 uM (control 13.5)) amounted to 9.8.

`CC[C@H]1CN2CCc3cc(OC)c(OC)cc3[C@@H]2C[C@@H]1C[C@H]1NCCc2cc(OC)c(OC)cc21` [Emetine, 2H-Benzoaquinolizine, 3-ethyl-1,3,4,6,7,11b-hexahydro-9,10-dimethoxy-2-(1R)-1,2,3,4-tetrahydro-6,7-dimethoxy-1-isoquinolinylmethyl-, dihydrochloride, (2S,3R,11bS)-, reference compound]: the IC50 is ~200 nM in data set [1] (Homo sapiens, read-out: IC50, protein synthesis); ~120 nM in data set [1] (Homo sapiens, BEC-hACE2, read-out: IC50, protein synthesis inhibition); 40 to 60 nM with HCoV-OC43 (setting [7]); 44 ± 2 nM with HCoV-OC43 (Betacoronavirus 1, OC43, Vero C1008, Vero E6, drug 1 h before viral absorption and 72 h after infection (1 hbi/72 hpi), read-out: Antiviral IC50); 40 ± 2 nM with HCoV-OC43 (setting [8]). Besides, the inhibition (commonly how much of the control response was suppressed) at 0.05 µM in [1] (setting [9]) came to 7%. The inhibition at 0.1 µM in [1] (setting [9]) was determined as 30%. The inhibition at 0.3 µM in [1] (setting [9]) came to 80%. In addition, in data set [1] (setting [9]), the inhibition at 1000 µM was found to be 97%. In addition, the inhibition at 0.5 µM in data set [1] (Homo sapiens, 0.5 μM, read-out: Inhibition of translation activity in host cells) is ≥ 90%. The same molecule displayed an inhibition at 1 µM in [1] (Homo sapiens) of 97%. This molecule showed an inhibition at 10 µM in data set [1] (Homo sapiens, BEC-hACE2, 10 μM) of 100%. The CC50 (in general, the concentration that lowers cell viability or growth by half) at 24 h in data set [4] came out at 100000 nM. The Kd at sodium channel is 15000 nM. Also, in the data set with Vero E6 cells, the “Concentrations at which drug is cytotoxic” value is given as “higher than 10 μM”. For the same molecule, the CC50 at 72 h in data set [5] was determined as 1520 nM. In the data set with Entamoeba histolytica [6], the “Concentration required to inhibit growth of Entamoeba histolytica” value is 12 to 25 µM. Further, the “SRB, TGI” value is 250 to 500 nM in the data set on BEC-hACE2 cells and “∼ 0.25–0.5 μM” in the data set with BEC-hACE2 cells (listed as EMT). The GI50 was 110 nM in the data set with BEC-hACE2 cells (Homo sapiens, 24 h) and 112 ± 22 nM with BEC-hACE2 cells (listed as EMT). Besides, the “Estimated reduction in ICaL” value in [3] (human cardiomyocytes, assuming 25 µM) is on record as “approximately one-third”.

With `CC[C@H]1CN2CCc3cc(OC)c(OC)cc3[C@@H]2C[C@@H]1C[C@@H]1NCCc2cc(OC)c(OC)cc21.Cl.Cl` [Isoemetine, 2H-Benzoaquinolizine, 3-ethyl-1,3,4,6,7,11b-hexahydro-9,10-dimethoxy-2-(1S)-1,2,3,4-tetrahydro-6,7-dimethoxy-1-isoquinolinylmethyl-, dihydrochloride, (2S,3R,11bS)-], the “Protein synthesis inhibition,%” value in data set [1] (BEC-hACE2, 10 μM, 10 µM) is on record as 20%; in data set [1] (BEC-hACE2, 10 μM, listed as ISOEMT, 10 µM), 18%; in data set [1] (BEC-hACE2, 30 μM, 30 µM), 50%; in data set [1] (BEC-hACE2, 30 μM, listed as ISOEMT, 30 µM), 47%. The IC50 in the data set with HCoV-OC43 (Vero E6, drug added after viral absorption, 72 hpi, read-out: Antiviral IC50) worked out at 1050 ± 213 nM. For the same molecule, in the data set on Vero E6 cells (MTS, 72 h, read-out: Fifty percent effect (CC50) in non-infected Vero E6), the CC50 was determined as 114000 ± 13100 nM. In addition, the “SRB, TGI” value in the data set with BEC-hACE2 cells is ~200000 nM. Further, the GI50 with BEC-hACE2 cells turned out to be 19400 ± 3860 nM. In addition, in the data set with BEC-hACE2 cells (BEC-hACE2, at ∼200 μM), the “SRB, nature of the effect” value was “toxic”.

(Values after paper PMC10831786 (Virus Research, 2024).)
